Data taken from PMC3953731 (FEBS Open Bio, 2014).
Read-outs that look alike come from different tables or passages of the source. One block for each molecule: values may come before it.

Assays:
[1] = test system: the four isomaltases (Ima1p, Ima2p, Ima3p, Ima5p); assay: Effects of chemical reagents and metal ions on purified isomaltases; format: biochemical, Saccharomyces cerevisiae
Ima1p [2] = target: T1, Ima1p (Saccharomyces cerevisiae, UniProt P53051); assay: Inhibition by acarbose of isomaltose hydrolysis; format: biochemical; conditions: read-out: residual activity
T1 sequence (P53051 whole entry): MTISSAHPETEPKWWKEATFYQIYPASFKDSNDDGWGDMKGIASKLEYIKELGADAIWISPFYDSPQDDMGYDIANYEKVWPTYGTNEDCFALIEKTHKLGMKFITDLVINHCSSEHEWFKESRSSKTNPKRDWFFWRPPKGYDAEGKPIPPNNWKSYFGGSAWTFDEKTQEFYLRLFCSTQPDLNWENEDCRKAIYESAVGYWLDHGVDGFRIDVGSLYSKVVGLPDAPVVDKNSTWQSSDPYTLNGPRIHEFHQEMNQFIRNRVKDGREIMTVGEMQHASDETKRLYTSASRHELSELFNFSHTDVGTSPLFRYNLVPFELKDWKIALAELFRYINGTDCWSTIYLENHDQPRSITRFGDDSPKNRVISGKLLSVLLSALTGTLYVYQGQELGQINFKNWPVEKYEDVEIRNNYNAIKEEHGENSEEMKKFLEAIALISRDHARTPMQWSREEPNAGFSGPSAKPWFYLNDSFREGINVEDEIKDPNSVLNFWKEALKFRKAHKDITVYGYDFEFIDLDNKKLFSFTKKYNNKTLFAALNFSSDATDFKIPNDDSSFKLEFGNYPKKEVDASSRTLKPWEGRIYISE

Ima1p [3] = target: T1, Ima1p; assay: Substrate specificity of purified isomaltase; format: biochemical; conditions: 100 mM substrate (pNPG 5 mM), pH 7, 30 °C; for Specific activities: citrate–potassium phosphate buffer
Ima2p [4] = target: T2, Ima2p (Saccharomyces cerevisiae, UniProt Q08295); assay: Substrate specificity of purified isomaltase; format: biochemical; conditions: 100 mM substrate (pNPG 5 mM), pH 7, 30 °C; for Specific activities: citrate–potassium phosphate buffer
T2 sequence (Q08295 whole entry): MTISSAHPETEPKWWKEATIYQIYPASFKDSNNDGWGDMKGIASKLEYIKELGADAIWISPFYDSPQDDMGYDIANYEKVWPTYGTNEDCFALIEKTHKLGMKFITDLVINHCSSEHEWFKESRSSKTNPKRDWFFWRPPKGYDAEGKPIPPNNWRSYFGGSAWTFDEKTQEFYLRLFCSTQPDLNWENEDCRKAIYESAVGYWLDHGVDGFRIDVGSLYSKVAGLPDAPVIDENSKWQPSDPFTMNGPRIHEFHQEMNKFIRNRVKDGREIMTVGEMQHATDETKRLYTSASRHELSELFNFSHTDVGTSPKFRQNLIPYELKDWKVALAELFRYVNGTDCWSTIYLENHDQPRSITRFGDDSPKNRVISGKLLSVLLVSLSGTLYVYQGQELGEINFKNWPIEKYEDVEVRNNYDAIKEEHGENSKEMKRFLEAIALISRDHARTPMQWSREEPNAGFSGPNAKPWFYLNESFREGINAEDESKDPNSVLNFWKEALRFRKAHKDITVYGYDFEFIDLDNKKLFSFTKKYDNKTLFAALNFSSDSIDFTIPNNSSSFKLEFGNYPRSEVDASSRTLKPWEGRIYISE

[5] = test system: the four isomaltases (Ima1p, Ima2p, Ima3p, Ima5p); assay: Activity of the isomaltases on substrates; format: biochemical, Saccharomyces cerevisiae; conditions: for activity on the substrate: all Ima proteins
Ima5p [6] = target: T3, Ima5p (Saccharomyces cerevisiae, UniProt P40884); assay: Substrate specificity of purified isomaltase; format: biochemical; conditions: 100 mM substrate (pNPG 5 mM), pH 7, 30 °C; for Specific activities: citrate–potassium phosphate buffer
T3 sequence (P40884 1-581): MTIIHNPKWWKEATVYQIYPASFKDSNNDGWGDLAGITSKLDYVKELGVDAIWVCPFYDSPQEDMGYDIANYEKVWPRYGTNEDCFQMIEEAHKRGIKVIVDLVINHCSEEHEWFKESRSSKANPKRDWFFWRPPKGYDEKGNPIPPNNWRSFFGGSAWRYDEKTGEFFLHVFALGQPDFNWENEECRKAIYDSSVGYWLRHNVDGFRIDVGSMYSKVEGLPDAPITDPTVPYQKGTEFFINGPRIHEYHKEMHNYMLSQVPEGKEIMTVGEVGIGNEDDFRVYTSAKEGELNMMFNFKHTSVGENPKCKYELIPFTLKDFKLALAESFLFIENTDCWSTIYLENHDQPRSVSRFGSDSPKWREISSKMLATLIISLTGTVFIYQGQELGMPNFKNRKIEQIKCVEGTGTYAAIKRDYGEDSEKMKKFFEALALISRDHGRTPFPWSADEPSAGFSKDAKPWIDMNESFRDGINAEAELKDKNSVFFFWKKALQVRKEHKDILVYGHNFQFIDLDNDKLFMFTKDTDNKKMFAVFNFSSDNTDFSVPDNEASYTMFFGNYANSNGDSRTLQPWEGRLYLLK

Ima3p [7] = target: T4, Ima3p (Saccharomyces cerevisiae, UniProt P0CW40); assay: Substrate specificity of purified isomaltase; format: biochemical; conditions: 100 mM substrate (pNPG 5 mM), pH 7, 30 °C; for Specific activities: citrate–potassium phosphate buffer
T4 sequence (P0CW40 whole entry): as the sequence (Q08295 whole entry) above, with A54T, P240L, Q279R counted along it

Ima1p [8] = target: T1, Ima1p; assay: Inhibition by maltose of isomaltose hydrolysis; format: biochemical
Ima5p [9] = target: T3, Ima5p; assay: Inhibition by maltose of isomaltose hydrolysis; format: biochemical; conditions: isomaltose up to 50 mM
Ima1p [10] = target: T1, Ima1p; conditions: isomaltose 50–500 mM; cited from earlier work
[11] = test system: the four isomaltases (Ima proteins); assay: Effect of compounds on melting temperature of isomaltases; design: species or system Saccharomyces cerevisiae
Ima1p [12] = target: T1, Ima1p; assay: Effects of chemical reagents and metal ions on purified isomaltases; format: biochemical; conditions: 5 mM pNPG as substrate; for effect on activity: Mg2+ 5 mM, Mn2+ 1 mM
Ima3p [13] = target: T4, Ima3p; assay: Kinetic parameters for selected substrates; format: biochemical
Ima3pR279Q = Ima3pR279Q (Saccharomyces cerevisiae, UniProt P0CW40, R279Q); assay: Substrate specificity of purified isomaltase variant; format: biochemical; conditions: 100 mM substrate (pNPG 5 mM), citrate–potassium phosphate buffer, pH 7, 30 °C
Chain of Ima3pR279Q (P0CW40 whole entry R279Q): as the sequence (Q08295 whole entry) above, with A54T, P240L counted along it

Ima2p [14] = target: T2, Ima2p; assay: Kinetic parameters for selected substrates; format: biochemical
Ima1p [15] = target: T1, Ima1p; assay: Kinetic parameters for selected substrates; format: biochemical
Ima5p [16] = target: T3, Ima5p; assay: Kinetic parameters for selected substrates; format: biochemical
Ima3pL240P = Ima3pL240P (Saccharomyces cerevisiae, UniProt P0CW40, L240P); assay: Substrate specificity of purified isomaltase variant; format: biochemical; conditions: 100 mM substrate (pNPG 5 mM), citrate–potassium phosphate buffer, pH 7, 30 °C
Chain of Ima3pL240P (P0CW40 whole entry L240P): as the sequence (Q08295 whole entry) above, with A54T, Q279R counted along it

Ima3p [17] = target: T4, Ima3p; conditions: addition of EDTA, 5 mM; 5 mM pNPG as substrate
[18] = substrate concentration increased to 10 mM

Compound: [Ca+2] [Ca^2+]
effect on activity ([1]; addition of Ca2+, 5 mM): None of the isoforms was affected

remaining activity at 5000 µM (Ima1p [2]): ~80% | remaining activity at 20000 µM (Ima1p [2]): ~40%
Compound: C[C@H]1O[C@H](O[C@H]2[C@H](O)[C@@H](O)[C@@H](O[C@H]3[C@H](O)[C@@H](O)C(O)O[C@@H]3CO)O[C@@H]2CO)[C@H](O)[C@@H](O)[C@@H]1N[C@H]1C=C(CO)[C@@H](O)[C@H](O)[C@H]1O (stereo partly drawn) [acarbose]

Specific activities (Ima1p [3]): 0 µmol/min/mg | Specific activities (Ima2p [4]): 0 µmol/min/mg | activity on the substrate [5]: no release of pNP | Specific activities (Ima5p [6]): 0 µmol/min/mg | Specific activities (Ima3p [7]): 0 µmol/min/mg
Compound: O=[N+]([O-])c1ccc(O[C@@H]2O[C@H](CO)[C@@H](O)[C@H](O)[C@H]2O)cc1 [β-pNPG, 4-Nitrophenyl β-D-glucopyranoside]

type of inhibition (Ima1p [8]; at high substrate concentration): uncompetitive inhibition | type of inhibition (Ima1p [8]; at low substrate concentration): competitive inhibition | Specific activities (Ima1p [3]): 0 µmol/min/mg | type of inhibition (Ima5p [9]): mixed inhibition | Specific activities (Ima2p [4]): 0 µmol/min/mg | activity on the substrate [5]: totally inactive | Specific activities (Ima5p [6]): 0 µmol/min/mg | Specific activities (Ima3p [7]): 0 µmol/min/mg
Compound: OC[C@H]1O[C@H](O[C@H]2[C@H](O)[C@@H](O)[C@H](O)O[C@@H]2CO)[C@H](O)[C@@H](O)[C@@H]1O [Maltose, O-α-D-Glucosyl-(1→4)-α-D-glucose]
type of inhibition (Ima1p [10]): competitive inhibitor | effect on melting temperature ([11]; presence of maltose, results not shown): did not affect the melting temperature

residual activity (Ima1p [12]; 5 mM Fe3+, pH 7, 30 °C): 8%
Compound: [Fe+3] [Fe^3+]

Compound: NC(CO)(CO)CO [Tris]
increase of Tm of the 4 proteins ([11]; Tris 5 mM, assay at pH 7.0, results not shown): about 5 °C | inhibition of the activity ([1]; 5 mM Tris): 90%

Compound: O=[N+]([O-])c1ccc(O[C@H]2O[C@H](CO)[C@@H](O)[C@H](O)[C@H]2O)cc1 [α-pNPG, 4-Nitrophenyl α-D-glucopyranoside]
Specific activities (Ima1p [3]): 5.8 µmol/min/mg | relative activity, velocity on isomaltose set to 100 (Ima1p [3]): 10% | Ki (Ima3p [13]): 9.8 ± 3.2 mM | drop of activity at high substrate concentration (Ima3p [13]; [18]): 33% | Specific activities (Ima2p [4]): 7.7 µmol/min/mg | relative activity, velocity on isomaltose set to 100 (Ima2p [4]): 14% | Specific activities (Ima3pR279Q): 8.5 µmol/min/mg | Ki (Ima2p [14]): 12 ± 3 mM | Km ([5]; read-out: affinity constants (Km), approximate, over the Ima proteins): ~500 µM | Specific activities (Ima5p [6]): 10 µmol/min/mg | relative activity, velocity on isomaltose set to 100 (Ima5p [6]): 15% | Ki (Ima1p [15]): 25 ± 15 mM | drop of activity at high substrate concentration (Ima1p [15]; [18]): 10% | Specific activities (Ima3p [7]): 3.9 µmol/min/mg | relative activity, velocity on isomaltose set to 100 (Ima3p [7]): 54% | Ki (Ima5p [16]): 33 ± 21 mM | drop of activity at high substrate concentration (Ima5p [16]; [18]): 10% | Specific activities (Ima3pL240P): 5.5 µmol/min/mg

effect on activity (Ima1p [12]): slightly enhanced
Compound: [Mn+2] [Mn^2+]

effect on activity (Ima3p [17]): slightly inhibited
Compound: O=C(O)CN(CCN(CC(=O)O)CC(=O)O)CC(=O)O [EDTA]

effect on activity (Ima1p [12]): slightly enhanced
Compound: [Mg+2] [Mg^2+]
